Consider one compound from US20260183274A1, “PDK1 REGULATORY COMPOUND AND COMPOSITION CONTAINING THE SAME” (PROVIBIO CO., LTD., priority 2024, published 2026).

Type in all cases: cell-based
Assay [1] concerns T cells isolated from mouse spleens. Description: T cell proliferation inhibition (CFSE flow cytometry, anti-CD3/anti-CD28 stimulation). Particulars: Mus musculus, T-cell, 72 h, mouse spleen T cells, 3 days, read-out: Proliferation inhibition rate (%). The gist of the method:
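Splenic T cells from 7-week-old C57BL/6 mice were MACS-isolated, CFSE-labelled, seeded at 2×10^5 cells/well and activated with anti-CD3/anti-CD28 (0.5 μg/mL each). Compound at 10 nM–50 μM (six levels, triplicate) was present for 3 days at 37 °C before flow cytometric readout of proliferation inhibition rate.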
On the technique in general: In flow cytometry, cells or beads pass a laser one at a time.

Assay [2] concerns Human B Lymphocyte cell line, SU-DHL-8. The assay is described as follows: Relative cell viability CCK-8, SU-DHL-8. Particulars: Homo sapiens, SU-DHL-8, 48 h, 48 hours, untreated (DMSO) = 100%. In short, it runs like this: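 Cells grown in RPMI-1640 with 10% FBS, treated with compound at several concentrations, then given CCK-8 for 4 h at 37° C. Viability expressed as percent of DMSO-treated cells.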

The subject of assay [3] is Human Cervical Carcinoma cell line, HeLa. Description: Relative cell viability CCK-8, HeLa. Particulars: 48 hours. The protocol:
Similarly, human-derived cervical cancer cell line HeLa and renal cancer cell line ACHN, obtained from the Korean Cell Bank, were cultured in DMEM medium containing 10% FBS, 100 U/mL penicillin, and 100 μg/mL streptomycin.
(§1) Following stabilization, the cells were harvested using Trypsin-EDTA treatment, centrifuged at 1,200 rpm for 3 minutes, the supernatant was removed, and the cells were resuspended in the same medium. They were then seeded into a 96-well plate (Costar 96-well cell culture plate, Corning) at 100 μL per well, and the conditions were adjusted as indicated in Table 5.
(§2) The cells were cultured in a 5% CO2 incubator at 37° C. for 24 hours, and after stabilization of the cells, each plate was washed with 200 μL of PBS per well and treated with 50 μL of culture medium per well.
(§3) The compounds according to the present invention or the control group (DMSO) were added at concentrations of 0, 10, 30, and 50 μM in 50 μL aliquots to the plates, and the plates were cultured at 37° C. in a 5% CO2 incubator for 48 hours.
(§4) After that, 10 μL of CCK-8 was added to each well, and the plate was incubated again at 37° C. in a 5% CO2 incubator for 2 hours.
(§5) In other words, when the survival rate of untreated cells (DMSO) is set at 100%, the relative cell survival rate in each group treated with the drug at different concentrations is indicated.

Assay [4] concerns Human Breast Cancer cell line, MCF-7. Description: Relative cell viability CCK-8, MCF-7. Particulars: 48 hours. The protocol: Human-derived breast cancer cell line MCF-7, human-derived lung cancer cell line A549, human-derived colorectal cancer cell line HCT-116, human pancreatic cancer cell line AsPC-1, glioblastoma cell line A172, and melanoma cell line Malme-3M were obtained from the Korean Cell Bank. gastric cancer cell line SNU-719, and bladder cancer cell line T24 were cultured in RPMI-1640 medium containing 10% FBS.
as §1, §2, §3, §4, §5

Structures are written as SMILES.

On to `Nc1ncccc1C(=O)NCCCCCCCCCCCCN1CCc2ccccc2C1` [Compound 3, 2-Amino-N-[12-(3,4-dihydro-1H-isoquinolin-2-yl)-dodecyl]-nicotinamide], for which the inhibition at 0.01 µM in assay [1] (compound 10 nM) amounted to 4.99%. Further, in assay [1] (compound 100 nM), the inhibition at 0.1 µM amounted to 0%. The inhibition at 1 µM in assay [1] (compound 1 μM) is 0%. Besides, the inhibition at 10 µM in assay [1] (compound 10 μM) was found to be 88.3%. Also, the inhibition at 30 µM in assay [1] (compound 30 μM) was 100%. Moreover, the inhibition at 50 µM in assay [1] (compound 50 μM) worked out at 100%. For the same compound, the viability at 1 µM was 29.1% in assay [2] (read-out: Relative cell viability (%), SU-DHL-8, 1 μM); 16.4% in assay [3] (1 μM); 35.4% in assay [4] (MCF7, 1 μM). The viability at 10 µM in assay [2] (read-out: Relative cell viability (%), SU-DHL-8, 10 μM) turned out to be 25.7%; in assay [3] (10 μM), 3.26%; in assay [4] (MCF7, 10 μM), 9.1%. Besides, the viability at 30 µM in assay [2] (read-out: Relative cell viability (%), SU-DHL-8, 30 μM) came to 24.7%; in assay [3] (30 μM), 1.07%; in assay [4] (MCF7, 30 μM) it was 4.02%. Besides, the viability at 50 µM worked out at 23.5% in assay [2] (read-out: Relative cell viability (%), SU-DHL-8, 50 μM); 0.73% in assay [3] (50 μM); 1.95% in assay [4] (MCF7, 50 μM).

What is called viability is a read-out of living cells in per cent, often relative to untreated cells.
